Laboratory results from patent publication US20240148776A1, “TUMESCENT SOLUTION WITH B VITAMINS” (priority 2022, published 2024).

How the values were obtained:
[1] = Stability of vitamin B12 for injection and of its pink colour; format: physicochemical
Method: When Klein placed a purchase order for their first vial of injectable B12, they had no idea that the solution would have a red/pink color. When 10 mg in 10 ml of B12 was added to 1,000 ml of TELTA (1:100 dilution of B12), the result was a TELTAB solution with a distinctive pink color. […] They thought the novel pink color would be memorable and an interesting topic of conversation. […] The next conceptual step was the idea that the pink color of TELTAB might be a clever marketing gimmick, which could distinguish TELTAB from all other bags of saline.

[2] = test system: postherpetic neuralgia (PHN); experiment: Tumescent treatment of patients with established postherpetic neuralgia (PHN); format: in vivo, human; conditions: B12 added to TEL[AT] in acute zoster
Text: “Hotspot pain” is the area within the dermatome where the zoster pain is clearly the most intense. […] “Elsewhere pain” is zoster pain that affects areas within the dermatome other than the hotspot.

[3] = test system: acute Herpes zoster (shingles); conditions: cited from earlier work

**Q.** For Cobalamin [B12], which “stability of pink pigment over time” value [1] is on record?
**A.** Its value is “does not appear to fade over time”.

**Q.** And the “stability of nutritional function on exposure to light” value ([1]; light)?
**A.** Its value is “not stable when exposed to light”.

**Q.** And the “incidence of PHN” value [2]?
**A.** The value was “reduced the incidence of PHN”.

**Q.** And the “effect on pain of acute Herpes zoster compared to placebo” value ([3]; B12 1 mg/ml, 2 weeks)?
**A.** Its value is “gradually reduce the pain of acute Herpes zoster”.

**Q.** With `Cc1ncc(C[n+]2csc(CCO)c2C)c(N)n1` [Undiluted vitamin B1, Thiamine] as the molecule, how does the “reduction of zoster-related intensely painful itching compared to placebo” value ([3]; 2-week protocol of multiple daily injections) read?
**A.** Its value is 30%.
